Measured values reported in patent US7700522B2, “α-Oxygenated or α-thiolated carboxylic acid phenethylamide derivatives” (Syngenta Crop Protection, Inc., priority 2001, dated 2010).

Assays:
Type in all cases: in vivo
Phytophthora [1] = experiment: D-2a residual-protective action against Phytophthora on tomato plants; details: test D-2a, sprayed 48 hours before infection, untreated plants attack 80-100%, read-out: inhibit fungal infestations
Method: (§1) D-2: Action Against Phytophthora on Tomato Plants
(§2) a) Residual-protective Action
After a cultivation period of 3 weeks, tomato plants are sprayed with a spray mixture (0.02% active ingredient) prepared from a wettable powder formulation of the test compound. After 48 hours, the treated plants are infected with a sporangia suspension of the fungus. Fungus infestation is evaluated after incubation of the infected plants for 5 days at 90-100% relative humidity and +20° C.

Phytophthora [2] = experiment: D-3b systemic action against Phytophthora on potato plants; details: test D-3b, potato plants (Bintje), soil watering 48 hours before infection, untreated plants attack 80 to 100%, read-out: inhibit fungal infestations
Method: (§3) D-3: Action Against Phytophthora on Potato Plants
2-3 week old potato plants (Bintje variety) are watered with a spray mixture (0.02% active ingredient based on the volume of the soil) prepared from a wettable powder formulation of the test compound. […] After 48 hours, the treated plants are infected with a sporangia suspension of the fungus. Fungus infestation is evaluated after incubation of the infected plants for 4 days at 90-100% relative humidity and +20° C.

Phytophthora [3] = experiment: D-3a residual-protective action against Phytophthora on potato plants; details: test D-3a, potato plants (Bintje), sprayed 48 hours before infection, untreated plants attack 80 to 100%, read-out: inhibit fungal infestations
Method: as §3, §2
2-3 week old potato plants (Bintje variety) are sprayed with a spray mixture (0.02% active ingredient) prepared from a wettable powder formulation of the test compound. After 48 hours, the treated plants are infected with a sporangia suspension of the fungus. Fungus infestation is evaluated after incubation of the infected plants for 4 days at 90-100% relative humidity and +20° C.

Plasmopara viticola [4] = experiment: D-1b residual-curative action against Plasmopara viticola on vines; details: test D-1b, vine seedlings, sprayed 24 hours after infection, untreated plants attack 80-100%, read-out: inhibit fungal infestations
Method: (§4) D-1: Action Against Plasmopara Viticola on Vines
b) Residual-curative Action
Vine seedlings are infected at the 4- to 5-leaf stage with a sporangia suspension of the fungus. After incubation for 24 hours in a humidity chamber at 95-100% relative humidity and +20° C., the infected plants are dried and sprayed with a spray mixture (0.02% active ingredient) prepared from a wettable powder formulation of the test compound. After the spray coating has dried, the treated plants are placed in the humidity chamber again. Fungus infestation is evaluated 6 days after infection.

Phytophthora [5] = experiment: D-2b systemic action against Phytophthora on tomato plants; details: test D-2b, soil watering 96 hours before infection, untreated plants attack 80-100%, read-out: inhibit fungal infestations
Method: as §1
After a cultivation period of 3 weeks, tomato plants are watered with a spray mixture (0.02% active ingredient based on the volume of the soil) prepared from a wettable powder formulation of the test compound. […] After 96 hours, the treated plants are infected with a sporangia suspension of the fungus. Fungus infestation is evaluated after incubation of the infected plants for 4 days at 90-100% relative humidity and +20° C.

Plasmopara viticola [6] = experiment: D-1a residual-protective action against Plasmopara viticola on vines; details: test D-1a, vine seedlings, sprayed 24 hours before infection, untreated plants attack 80-100%, read-out: inhibit fungal infestations
Method: as §4, §2
Vine seedlings are sprayed at the 4- to 5-leaf stage with a spray mixture (0.02% active ingredient) prepared from a wettable powder formulation of the test compound. After 24 hours, the treated plants are infected with a sporangia suspension of the fungus. Fungus infestation is evaluated after incubation for 6 days at 95-100% relative humidity and +20° C.

Measured: inhibition at 200 ppm

C#CCOc1ccc(CCNC(=O)C(Cc2ccccc2)OCC#C)cc1OC (stereo not shown) [Compound E1.03, N-[2-(3-methoxy-4-prop-2-ynyloxy-phenyl)-ethyl]-3-phenyl-2-prop-2-ynyloxy-propionamide]
80 to 100%: all assays above

C#CCOc1ccc(CCNC(=O)C(Cc2ccc(F)cc2)OCC#C)cc1OC (stereo not shown) [Compound E1.06, 3-(4-fluoro-phenyl)-N-[2-(3-methoxy-4-prop-2-ynyloxy-phenyl)-ethyl]-2-prop-2-ynyloxy-propionamide]
80 to 100%: Phytophthora [1] | Phytophthora [2] | Phytophthora [3] | Phytophthora [5]

C#CCOc1ccc(CCNC(=O)C(Cc2ccc(Cl)cc2)OCC#C)cc1OC (stereo not shown) [Compound E1.10, 3-(4-chloro-phenyl)-N-[2-(3-methoxy-4-prop-2-ynyloxy-phenyl)-ethyl]-2-prop-2-ynyloxy-propionamide]
80 to 100%: all assays above

C#CCOc1ccc(CCNC(=O)C(Cc2ccc(Br)cc2)OCC#C)cc1OC (stereo not shown) [Compound E1.15, 3-(4-bromo-phenyl)-N-[2-(3-methoxy-4-prop-2-ynyloxy-phenyl)-ethyl]-2-prop-2-ynyloxy-propionamide]
80 to 100%: all assays above

C#CCOc1ccc(CCNC(=O)C(Cc2ccc(C)cc2)OCC#C)cc1OC (stereo not shown) [Compound E1.18, N-[2-(3-methoxy-4-prop-2-ynyloxy-phenyl)-ethyl]-2-prop-2-ynyloxy-3-p-tolyl-propionamide]
80 to 100%: Plasmopara viticola [4] | Plasmopara viticola [6]

C#CCOc1ccc(CCNC(=O)C(Cc2ccc(CC)cc2)OCC#C)cc1OC (stereo not shown) [Compound E1.22, 3-(4-ethyl-phenyl)-N-[2-(3-methoxy-4-prop-2-ynyloxy-phenyl)-ethyl]-2-prop-2-ynyloxy-propionamide]
80 to 100%: Phytophthora [1] | Plasmopara viticola [4] | Phytophthora [5] | Plasmopara viticola [6]
